In patent US8658383B2, “Sweet taste receptor-expressing construct, cell body expressing the same, and utilization thereof” (T. Hasegawa Co., Ltd., priority 2009, dated 2014):
Residues, ends and D or L forms follow the SMILES beside them.

Target: T1, human sweet taste receptor (hT1R2+hT1R3) (Homo sapiens, UniProt Q7RTX0+Q8TE23)
T1 sequence (Q8TE23 20-839): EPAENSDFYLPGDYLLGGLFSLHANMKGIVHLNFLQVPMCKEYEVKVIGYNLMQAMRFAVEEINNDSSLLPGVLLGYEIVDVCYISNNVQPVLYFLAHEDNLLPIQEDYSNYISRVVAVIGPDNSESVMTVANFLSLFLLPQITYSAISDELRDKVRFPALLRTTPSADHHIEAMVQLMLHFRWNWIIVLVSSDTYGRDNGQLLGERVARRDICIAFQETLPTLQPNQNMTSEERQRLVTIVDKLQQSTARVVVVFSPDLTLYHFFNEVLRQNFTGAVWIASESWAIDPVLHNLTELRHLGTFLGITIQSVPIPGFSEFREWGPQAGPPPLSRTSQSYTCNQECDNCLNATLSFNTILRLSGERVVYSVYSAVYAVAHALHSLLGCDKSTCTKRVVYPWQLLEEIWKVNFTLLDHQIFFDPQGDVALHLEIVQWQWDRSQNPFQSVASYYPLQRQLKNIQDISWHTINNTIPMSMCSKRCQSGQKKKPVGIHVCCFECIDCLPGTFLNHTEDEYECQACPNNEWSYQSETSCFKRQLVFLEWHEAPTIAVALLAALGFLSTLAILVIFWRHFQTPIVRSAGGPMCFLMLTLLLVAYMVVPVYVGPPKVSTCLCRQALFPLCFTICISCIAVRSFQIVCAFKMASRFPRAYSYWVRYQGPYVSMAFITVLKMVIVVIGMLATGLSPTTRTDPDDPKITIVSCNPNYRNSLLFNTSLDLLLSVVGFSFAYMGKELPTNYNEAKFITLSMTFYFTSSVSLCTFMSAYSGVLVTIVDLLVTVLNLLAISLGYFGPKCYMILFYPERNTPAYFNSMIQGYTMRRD
T1 sequence (Q7RTX0 21-852): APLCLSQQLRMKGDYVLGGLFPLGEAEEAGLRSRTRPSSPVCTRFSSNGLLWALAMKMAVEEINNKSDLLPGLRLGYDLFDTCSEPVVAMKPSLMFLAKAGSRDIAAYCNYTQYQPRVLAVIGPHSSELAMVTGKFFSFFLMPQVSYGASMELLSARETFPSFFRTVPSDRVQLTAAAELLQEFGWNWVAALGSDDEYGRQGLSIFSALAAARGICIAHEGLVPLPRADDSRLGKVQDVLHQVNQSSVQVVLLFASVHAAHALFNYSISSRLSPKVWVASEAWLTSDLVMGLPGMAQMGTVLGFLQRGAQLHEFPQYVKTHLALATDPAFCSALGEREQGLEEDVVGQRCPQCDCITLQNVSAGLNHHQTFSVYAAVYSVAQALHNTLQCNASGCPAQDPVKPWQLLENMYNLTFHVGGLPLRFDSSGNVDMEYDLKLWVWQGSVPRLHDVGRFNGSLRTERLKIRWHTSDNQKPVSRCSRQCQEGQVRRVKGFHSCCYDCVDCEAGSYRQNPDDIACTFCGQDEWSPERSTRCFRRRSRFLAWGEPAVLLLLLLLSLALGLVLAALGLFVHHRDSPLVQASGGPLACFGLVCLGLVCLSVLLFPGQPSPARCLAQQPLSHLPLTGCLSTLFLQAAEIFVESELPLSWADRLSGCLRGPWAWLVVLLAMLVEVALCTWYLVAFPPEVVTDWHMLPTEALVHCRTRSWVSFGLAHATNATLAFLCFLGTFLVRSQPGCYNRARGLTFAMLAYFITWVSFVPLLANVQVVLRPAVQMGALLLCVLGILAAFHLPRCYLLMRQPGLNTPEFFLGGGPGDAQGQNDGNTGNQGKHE
Test: Automated fluorescent calcium imaging (Fluo-4 AM, FlexStation 3) of cultured cell strain (A)
Type: cell-based
Parameters: The sweet taste receptor subunits T1R2 and T1R3 include an entire part of each subunit
Conditions: Average ± S.E., n = 2
Procedure: Automated fluorescent imaging using FlexStation 3 (Molecular Devices) can be performed, for example, according to the following procedure.
First, cells are suspended in a low glucose ([…]) DMEM medium from which hygromycin B has been removed, and each 70 to 80 thousands of cells are seeded on each well of a 96-well plate (Corning, CellBIND Surface).
Then, after cultured at 37° C. for 24 hours, a medium is removed and replaced with a suitable amount of a HEPES (2-[4-(2-hydroxyethyl)-1-piperazinyl]ethanesulfonic acid) buffer, and a HEPES buffer containing a fluorescent calcium indicator (Fluo-4 AM attached to Molecular Devices, FLIPR Ca 4 Assay Kit) is further added. In order to facilitate transfer into cells, a fat-soluble acetoxymethyl group has been introduced into the fluorescent indicator Fluo-4 (excitation wavelength: 495 nm, fluorescent wavelength: 518 nm), and when it is added to a medium, it is easily taken into cells, and is hydrolyzed with an esterase in cells. Hydrolyzed Fluo-4 becomes difficult to be permeated through a cell membrane, and is diffused into cells to form a complex with calcium, emitting intense fluorescence. In a 96-well plate for fluorescent observation, there are a plastic bottom and a film bottom. Since a plate of the plastic bottom is satisfactory in adherability and growth of cells, it is used at a simultaneous assay using a multiplate reader for observing an entire well. However, since a plate of this plastic bottom is bad in transmission property of a UV wavelength, and inhibits transmission of excited light of Fura-2, Fluo-4 is used.
Then, after incubated at 27 to 37° C. for 30 to 60 minutes, by adding thereto a sweet taste substance at a particular concentration or a solution of a sweet taste substance and a substance to be tested, taste stimulation is performed at 27 to 37° C.
A physiological response of the cultured cell strain (A) to sucrose stimulation was analyzed by automated fluorescent imaging.
The cultured cell strain (A) prepared in Example 4 was trypsinized, and suspended in the DMEM medium, a cell density was measured, and each about 80 thousand cells were seeded on each well of a 96-well plate (Corning, CellBIND Surface).
After cultured at 37° C. for 24 hours, the medium was removed and replaced with 50 μl of a HEPES buffer, and 50 μl of a HEPES buffer containing a fluorescent calcium indicator (Fluo-4 AM attached to Molecular Devices, FLIPR Ca 4 Assay Kit) was further added. Then, this was incubated at 27° C. for 45 minutes to prepare cells to be subjected to automated fluorescent imaging.
Then, to the cells was added a HEPES buffer containing sucrose, so that a final concentration of sucrose became a concentration described in Table 1, and sucrose stimulation was performed at 27° C.
The vertical axis of FIG. 15 is a maximum of change (AF) in a fluorescent intensity between immediately after stimulation and 100 seconds after stimulation, that is, a response intensity of cells, and the horizontal axis indicates a sucrose concentration (mM) expressed by logarithm.
A physiological response of the cultured cell strain (A) to D-phenylalanine stimulation was analyzed by automated fluorescent imaging.

COC(=O)[C@H](Cc1ccccc1)NC(=O)[C@@H](N)CC(=O)O [aspartame] (H-Asp-Phe-OMe)
Change amount of fluorescent intensity (ΔF) (aspartame 0.04 mM): 3.0 ± 0.1
Change amount of fluorescent intensity (ΔF) (aspartame 0.16 mM): 4.4 ± 1.1
Change amount of fluorescent intensity (ΔF) (aspartame 0.31 mM): 5.2 ± 0.4
Change amount of fluorescent intensity (ΔF) (aspartame 0.63 mM): 12.3 ± 1.7
Change amount of fluorescent intensity (ΔF) (aspartame 1.25 mM): 27.9 ± 1.9
Change amount of fluorescent intensity (ΔF) (aspartame 2.50 mM): 31.2 ± 0.7
